In patent US20150018301A1, “LRRK-2-Mediated Neuronal Toxicity” (THE JOHNS HOPKINS UNIVERSITY, priority 2009, published 2015):

Each compound was assayed against T1, LRRK2 WT (Homo sapiens, UniProt Q5S007) (assay: In vitro kinase assay: LRRK2 autophosphorylation). Settings: LRRK2 versus LRRK1 kinase activity.
Format: biochemical

T1 sequence (Q5S007 whole entry): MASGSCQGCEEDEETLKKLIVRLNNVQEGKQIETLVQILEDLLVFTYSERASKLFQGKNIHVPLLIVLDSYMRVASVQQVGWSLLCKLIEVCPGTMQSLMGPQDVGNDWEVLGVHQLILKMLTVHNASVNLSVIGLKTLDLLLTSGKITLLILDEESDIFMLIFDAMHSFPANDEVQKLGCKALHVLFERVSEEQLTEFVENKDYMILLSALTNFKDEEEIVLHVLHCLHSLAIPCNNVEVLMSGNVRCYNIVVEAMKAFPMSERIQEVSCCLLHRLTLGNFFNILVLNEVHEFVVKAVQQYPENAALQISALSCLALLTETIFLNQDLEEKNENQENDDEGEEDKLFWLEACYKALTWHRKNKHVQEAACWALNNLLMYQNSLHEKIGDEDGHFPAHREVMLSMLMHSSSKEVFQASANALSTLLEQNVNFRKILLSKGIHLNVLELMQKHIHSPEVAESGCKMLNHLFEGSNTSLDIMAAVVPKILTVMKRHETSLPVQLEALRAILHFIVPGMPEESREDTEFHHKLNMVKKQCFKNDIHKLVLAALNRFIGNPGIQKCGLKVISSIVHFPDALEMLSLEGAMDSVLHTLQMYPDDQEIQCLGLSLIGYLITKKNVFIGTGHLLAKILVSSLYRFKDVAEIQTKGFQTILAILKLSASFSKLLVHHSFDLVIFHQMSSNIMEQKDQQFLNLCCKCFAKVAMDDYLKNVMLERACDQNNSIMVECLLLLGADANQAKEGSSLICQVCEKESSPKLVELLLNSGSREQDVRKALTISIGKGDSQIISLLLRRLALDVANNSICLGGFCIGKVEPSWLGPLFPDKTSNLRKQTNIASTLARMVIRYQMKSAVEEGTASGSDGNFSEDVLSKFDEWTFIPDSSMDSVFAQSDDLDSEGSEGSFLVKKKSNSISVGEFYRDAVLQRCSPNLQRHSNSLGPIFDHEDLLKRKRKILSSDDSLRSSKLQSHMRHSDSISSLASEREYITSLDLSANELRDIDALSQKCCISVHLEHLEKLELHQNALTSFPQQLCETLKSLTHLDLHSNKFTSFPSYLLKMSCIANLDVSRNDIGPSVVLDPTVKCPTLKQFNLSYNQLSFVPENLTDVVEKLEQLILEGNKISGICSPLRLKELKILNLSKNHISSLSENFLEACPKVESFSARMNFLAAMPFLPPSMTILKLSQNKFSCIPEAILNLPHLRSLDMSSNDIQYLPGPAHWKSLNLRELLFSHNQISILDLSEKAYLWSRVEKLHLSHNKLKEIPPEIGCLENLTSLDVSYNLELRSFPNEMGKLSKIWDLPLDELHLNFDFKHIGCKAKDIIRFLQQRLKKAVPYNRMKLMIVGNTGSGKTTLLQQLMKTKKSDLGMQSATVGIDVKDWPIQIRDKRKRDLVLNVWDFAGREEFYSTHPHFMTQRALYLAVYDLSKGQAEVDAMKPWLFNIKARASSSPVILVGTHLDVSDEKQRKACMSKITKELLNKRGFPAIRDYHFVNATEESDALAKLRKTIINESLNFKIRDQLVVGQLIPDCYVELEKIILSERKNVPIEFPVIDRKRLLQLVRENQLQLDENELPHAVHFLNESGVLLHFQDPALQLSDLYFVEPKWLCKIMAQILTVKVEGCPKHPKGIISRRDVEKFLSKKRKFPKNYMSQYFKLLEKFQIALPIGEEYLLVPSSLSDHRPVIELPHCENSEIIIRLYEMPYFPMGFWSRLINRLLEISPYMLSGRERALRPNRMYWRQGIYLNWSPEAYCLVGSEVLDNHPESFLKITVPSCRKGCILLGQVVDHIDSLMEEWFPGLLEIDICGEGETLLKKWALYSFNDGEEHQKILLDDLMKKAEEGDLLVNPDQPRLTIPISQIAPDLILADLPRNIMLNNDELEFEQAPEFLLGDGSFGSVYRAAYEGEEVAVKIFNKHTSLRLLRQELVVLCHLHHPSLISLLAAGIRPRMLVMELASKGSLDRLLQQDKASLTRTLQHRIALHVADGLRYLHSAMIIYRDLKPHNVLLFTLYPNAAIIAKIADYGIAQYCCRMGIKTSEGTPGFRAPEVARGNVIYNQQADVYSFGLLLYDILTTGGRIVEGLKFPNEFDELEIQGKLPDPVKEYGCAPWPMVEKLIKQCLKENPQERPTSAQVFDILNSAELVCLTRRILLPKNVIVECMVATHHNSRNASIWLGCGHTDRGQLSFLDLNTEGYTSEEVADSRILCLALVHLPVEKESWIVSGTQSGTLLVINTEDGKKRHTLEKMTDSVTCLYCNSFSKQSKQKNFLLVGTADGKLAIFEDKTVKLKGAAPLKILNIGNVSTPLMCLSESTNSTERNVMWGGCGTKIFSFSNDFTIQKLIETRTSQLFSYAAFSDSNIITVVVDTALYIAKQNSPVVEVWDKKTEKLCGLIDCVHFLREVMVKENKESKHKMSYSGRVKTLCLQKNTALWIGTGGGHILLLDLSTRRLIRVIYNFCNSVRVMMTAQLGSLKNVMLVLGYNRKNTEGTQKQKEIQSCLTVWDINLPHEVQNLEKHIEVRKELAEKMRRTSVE

Compound	selectivity for LRRK2 kinase activity
Raf inhibitor IV	relatively selective

Same assay, conditions: Table 2; mean of three experiments

Compound	IC50 [µM]
CN(C)CCCn1cc(C2=C(c3c[nH]c4ccccc34)C(=O)NC2=O)c2ccccc21 [Inhibitor 31, GP109203X, reference compound]	5.27
O=C1c2ccccc2-c2n[nH]c3cccc1c23 [Inhibitor 68, SP600125, reference compound]	3.71
Nc1ncnc2c1c(I)cn2[C@@H]1O[C@H](CO)[C@@H](O)[C@H]1O [Inhibitor 49, 5-iodo-tubercidin, reference compound]	3.21
Cn1cc(C2=C(c3cn(CCCSC(=N)N)c4ccccc34)C(=O)NC2=O)c2ccccc21 [Inhibitor 33, Ro31-8220, reference compound]	1.64
COc1c(C=O)c(O)cc2c1C(=O)c1ccccc1C2=O [Inhibitor 22, Damnacanthal, reference compound]	19.1

Same assay, conditions: Table 3; mean of three experiments

Compound	IC50 [µM]
Raf inhibitor IV	5.43

Same assay, conditions: compound 16 μM; phosphorylation normalized to absence of compound; mean ± S.E.M. of three experiments

Compound	LRRK2 autophosphorylation Average ± SEM
CN(C)CCCn1cc(C2=C(c3c[nH]c4ccccc34)C(=O)NC2=O)c2ccccc21 [Inhibitor 31, GP109203X, reference compound]	16.1 ± 8.8 % of control
O=C1c2ccccc2-c2n[nH]c3cccc1c23 [Inhibitor 68, SP600125, reference compound]	18.3 ± 22.8 % of control
Nc1ncnc2c1c(I)cn2[C@@H]1O[C@H](CO)[C@@H](O)[C@H]1O [Inhibitor 49, 5-iodo-tubercidin, reference compound]	29.4 ± 14.7 % of control
O=C(O)c1cc(N(Cc2ccccc2O)Cc2cc(O)ccc2O)ccc1O [Inhibitor 9]	84.3 ± 21.1 % of control
Cn1cc(C2=C(c3cn(CCCSC(=N)N)c4ccccc34)C(=O)NC2=O)c2ccccc21 [Inhibitor 33, Ro31-8220, reference compound]	5.4 ± 3.0 % of control
Cc1ccc(-c2nn(C(C)(C)C)c3ncnc(N)c23)cc1 [Inhibitor 24]	88.3 ± 17.1 % of control
COc1cc2ncnc(Nc3cccc(Cl)c3)c2cc1OC [Inhibitor 18]	63.7 ± 28.0 % of control
O=c1c(O)c(-c2ccc(O)c(O)c2)oc2cc(O)cc(O)c12 [Inhibitor 62, Quercetin dihydrate]	39.2 ± 39.9 % of control
Brc1ccc([C@H]2CN3CCSC3=N2)cc1 [Inhibitor 75]	75.9 ± 3.9 % of control
COc1c(C=O)c(O)cc2c1C(=O)c1ccccc1C2=O [Inhibitor 22, Damnacanthal, reference compound]	34.7 ± 6.2 % of control
NCCNS(=O)(=O)c1cccc2cnccc12 [Inhibitor 5]	53.8 ± 34.5 % of control
Cl.c1ccc([C@H]2CN3CCSC3=N2)cc1 [Inhibitor 78]	74.6 ± 1.7 % of control
N#C/C(=C/c1cc(Cl)cc(Cl)c1)c1cccnc1 [Inhibitor 10]	90.8 ± 30.7 % of control

Same assay, conditions: screen at 16 μM

Compound	effect on LRRK2 autophosphorylation
CN(C)CCCn1cc(C2=C(c3c[nH]c4ccccc34)C(=O)NC2=O)c2ccccc21 [Inhibitor 31, GP109203X, reference compound]	substantially inhibited
O=C1c2ccccc2-c2n[nH]c3cccc1c23 [Inhibitor 68, SP600125, reference compound]	substantially inhibited
Nc1ncnc2c1c(I)cn2[C@@H]1O[C@H](CO)[C@@H](O)[C@H]1O [Inhibitor 49, 5-iodo-tubercidin, reference compound]	substantially inhibited
Cn1cc(C2=C(c3cn(CCCSC(=N)N)c4ccccc34)C(=O)NC2=O)c2ccccc21 [Inhibitor 33, Ro31-8220, reference compound]	substantially inhibited
COc1c(C=O)c(O)cc2c1C(=O)c1ccccc1C2=O [Inhibitor 22, Damnacanthal, reference compound]	substantially inhibited

The compounds below were run against T2, LRRK1 WT (Homo sapiens, UniProt Q38SD2) (assay: In vitro kinase assay: LRRK1 autophosphorylation). Settings: not given.
T2 sequence (Q38SD2 whole entry): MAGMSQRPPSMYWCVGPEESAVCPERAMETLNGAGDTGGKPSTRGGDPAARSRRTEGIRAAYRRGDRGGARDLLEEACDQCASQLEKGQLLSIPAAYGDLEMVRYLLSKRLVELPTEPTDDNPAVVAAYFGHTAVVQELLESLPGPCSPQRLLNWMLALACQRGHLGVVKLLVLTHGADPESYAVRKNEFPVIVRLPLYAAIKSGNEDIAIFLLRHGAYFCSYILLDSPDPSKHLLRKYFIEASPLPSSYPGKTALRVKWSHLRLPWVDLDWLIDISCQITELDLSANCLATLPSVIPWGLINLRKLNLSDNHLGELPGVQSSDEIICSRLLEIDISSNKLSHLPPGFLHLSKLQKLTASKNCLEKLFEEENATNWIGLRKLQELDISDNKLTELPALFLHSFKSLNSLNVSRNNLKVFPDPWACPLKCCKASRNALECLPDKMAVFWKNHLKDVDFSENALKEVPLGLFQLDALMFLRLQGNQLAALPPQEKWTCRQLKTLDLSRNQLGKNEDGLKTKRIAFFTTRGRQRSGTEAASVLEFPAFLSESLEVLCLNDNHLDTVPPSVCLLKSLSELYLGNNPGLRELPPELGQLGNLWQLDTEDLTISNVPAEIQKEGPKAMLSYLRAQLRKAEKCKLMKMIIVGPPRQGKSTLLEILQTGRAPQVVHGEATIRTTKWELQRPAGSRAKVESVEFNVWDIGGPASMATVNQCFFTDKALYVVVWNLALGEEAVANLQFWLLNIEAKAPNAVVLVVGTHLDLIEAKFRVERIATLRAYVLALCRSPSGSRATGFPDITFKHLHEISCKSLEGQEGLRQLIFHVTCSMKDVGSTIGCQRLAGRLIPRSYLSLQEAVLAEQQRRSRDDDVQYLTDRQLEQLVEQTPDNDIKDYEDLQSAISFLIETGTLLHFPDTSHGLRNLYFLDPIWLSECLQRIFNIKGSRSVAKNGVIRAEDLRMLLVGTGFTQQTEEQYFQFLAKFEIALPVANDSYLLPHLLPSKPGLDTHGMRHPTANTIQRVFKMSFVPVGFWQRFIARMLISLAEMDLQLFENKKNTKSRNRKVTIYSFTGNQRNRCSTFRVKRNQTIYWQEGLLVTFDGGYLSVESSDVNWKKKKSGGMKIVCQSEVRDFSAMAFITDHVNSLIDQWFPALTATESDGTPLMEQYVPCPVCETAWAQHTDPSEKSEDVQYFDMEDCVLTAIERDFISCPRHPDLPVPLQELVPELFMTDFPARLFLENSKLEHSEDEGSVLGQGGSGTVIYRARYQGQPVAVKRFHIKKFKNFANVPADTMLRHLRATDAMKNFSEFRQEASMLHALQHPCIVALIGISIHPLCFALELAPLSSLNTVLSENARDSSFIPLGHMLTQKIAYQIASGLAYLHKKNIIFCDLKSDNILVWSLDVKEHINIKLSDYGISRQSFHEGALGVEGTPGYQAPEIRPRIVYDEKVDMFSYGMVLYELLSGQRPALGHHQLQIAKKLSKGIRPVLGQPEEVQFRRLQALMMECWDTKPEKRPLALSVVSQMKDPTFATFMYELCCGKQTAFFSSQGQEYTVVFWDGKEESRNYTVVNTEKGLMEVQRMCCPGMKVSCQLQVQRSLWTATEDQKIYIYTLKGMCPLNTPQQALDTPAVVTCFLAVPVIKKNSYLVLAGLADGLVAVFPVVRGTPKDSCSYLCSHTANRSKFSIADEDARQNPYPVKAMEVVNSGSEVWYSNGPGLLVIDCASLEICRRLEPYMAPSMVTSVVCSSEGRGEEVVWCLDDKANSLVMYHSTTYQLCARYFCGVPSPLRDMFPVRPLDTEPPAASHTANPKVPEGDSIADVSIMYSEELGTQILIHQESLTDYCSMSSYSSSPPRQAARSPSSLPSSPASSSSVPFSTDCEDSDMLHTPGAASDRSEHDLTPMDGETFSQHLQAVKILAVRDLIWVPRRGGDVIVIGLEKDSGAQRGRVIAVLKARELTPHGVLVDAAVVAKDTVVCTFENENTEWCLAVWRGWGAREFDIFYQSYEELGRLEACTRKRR
Format: biochemical

Compound	effect on LRRK1 autophosphorylation
Raf inhibitor IV	minimal to no effect

Each compound was assayed against T3, LRRK2 G2019S (Homo sapiens, UniProt Q5S007, G2019S) (assay: In vitro kinase assay: G2019S LRRK2-mediated MBP phosphorylation). Settings: Table 2; mean of three experiments.
T3 sequence (Q5S007 whole entry G2019S): as the sequence (Q5S007 whole entry) above, with G2019S counted along it
Format: biochemical
Method: (§1) Transfection was performed by using Fugene HD reagent (Roche Applied Science) according to the manufacturer's instruction. For purification of recombinant LRRK1 and LRRK2 proteins, ACTA Purifier (GE Healthcare) FPLC system was used.
(§2) Resulting lysates were rotated at 4° C. for 30 min followed by centrifugation at 20,000×g for 15 min. The supernatants were injected into a GSTrap FF column pre-equilibrated with PBS at 0.5. mL/min flow after filtration using a 0.2 μm syringe filter (Corning). The bound proteins were eluted with buffer containing 10 mM GSH (Sigma), 150 mM NaCl, and 50 mM Tris-HCl (pH 8.0).
(§3) The in vitro kinase assay was performed as previously described. […] Recombinant LRRK2 and MBP or CST-4E-BP1 were combined before the kinase reaction. LRRK2 autophosphorylation is LRRK2 itself phosphorylation and MBP or GST-4E-BP1 phosphorylation is induced by LRRK2. After the kinase reaction, combined LRRK2 and MBP or GST-4E-BP1 were loaded on SDSPAGE and phosphorylated LRRK2 and MBP or GST-4E-BP1 could be detected separately an a single gel. Recombinant proteins and inhibitors were incubated at 30° C. in kinase assay buffer containing 20 mM Hepes (pH 7.4), 5 mM EGTA, and 20 mM β-glycerol phosphate. 0.5 μg MBP (Upstate) or 0.5 μg GST-4B-BP1, 50 μM ATP (Sigma), 20 mM MgCl2, and 1 μCi [γ-32P] ATP (PerkinElmer) was added after 5 min. The reaction was performed at 30° C. to reduce non-specific 32P incorporation for 15 min and terminated by the addition of 5×Laemmili sample buffer. […] Gels were stained by coomassie brilliant blue after fixation with 10% acetic acid and 40% methanol and then exposed to a Phosphoimager. Data were analyzed by ImageQuant 6.0 software.
(§4) To calculate the IC50 value, a dose-response curve was constructed and non-linear regression analysis using the equation for a sigmoid plot.

Compound	IC50 [µM]
CN(C)CCCn1cc(C2=C(c3c[nH]c4ccccc34)C(=O)NC2=O)c2ccccc21 [Inhibitor 31, GP109203X, reference compound]	2.62
O=C1c2ccccc2-c2n[nH]c3cccc1c23 [Inhibitor 68, SP600125, reference compound]	5
Nc1ncnc2c1c(I)cn2[C@@H]1O[C@H](CO)[C@@H](O)[C@H]1O [Inhibitor 49, 5-iodo-tubercidin, reference compound]	3.41
Cn1cc(C2=C(c3cn(CCCSC(=N)N)c4ccccc34)C(=O)NC2=O)c2ccccc21 [Inhibitor 33, Ro31-8220, reference compound]	5.16
COc1c(C=O)c(O)cc2c1C(=O)c1ccccc1C2=O [Inhibitor 22, Damnacanthal, reference compound]	9.45

Same assay, conditions: Table 3; mean of three experiments

Compound	IC50 [µM]
Raf inhibitor IV	6.51

The compounds below were run against T2, LRRK1 WT (assay: In vitro kinase assay: LRRK1-mediated MBP phosphorylation). Settings: not given.
Format: biochemical

Compound	effect on LRRK1 MBP phosphorylation
Raf inhibitor IV	minimal to no effect

Same assay, conditions: Table 3; mean of three experiments

Compound	IC50 [µM]
Raf inhibitor IV	21.5

What follows are compounds tested against T1, LRRK2 WT (assay: In vitro kinase assay: LRRK2-mediated MBP phosphorylation). Settings: Table 2; mean of three experiments.
Format: biochemical

Compound	IC50 [µM]
CN(C)CCCn1cc(C2=C(c3c[nH]c4ccccc34)C(=O)NC2=O)c2ccccc21 [Inhibitor 31, GP109203X, reference compound]	2.19
O=C1c2ccccc2-c2n[nH]c3cccc1c23 [Inhibitor 68, SP600125, reference compound]	3.1
Nc1ncnc2c1c(I)cn2[C@@H]1O[C@H](CO)[C@@H](O)[C@H]1O [Inhibitor 49, 5-iodo-tubercidin, reference compound]	14.8
Cn1cc(C2=C(c3cn(CCCSC(=N)N)c4ccccc34)C(=O)NC2=O)c2ccccc21 [Inhibitor 33, Ro31-8220, reference compound]	0.05
COc1c(C=O)c(O)cc2c1C(=O)c1ccccc1C2=O [Inhibitor 22, Damnacanthal, reference compound]	7.81

Same assay, conditions: Table 3; mean of three experiments

Compound	IC50 [µM]
Raf inhibitor IV	3.61

Same assay, conditions: compound 16 μM; 30° C., 15 min; normalized to absence of compound; mean ± S.E.M. of three experiments

Compound	MBP phosphorylation Average ± SEM
CN(C)CCCn1cc(C2=C(c3c[nH]c4ccccc34)C(=O)NC2=O)c2ccccc21 [Inhibitor 31, GP109203X, reference compound]	13.0 ± 8.2 % of control
O=C1c2ccccc2-c2n[nH]c3cccc1c23 [Inhibitor 68, SP600125, reference compound]	31.2 ± 12.1 % of control
Nc1ncnc2c1c(I)cn2[C@@H]1O[C@H](CO)[C@@H](O)[C@H]1O [Inhibitor 49, 5-iodo-tubercidin, reference compound]	39.3 ± 9.9 % of control
O=C(O)c1cc(N(Cc2ccccc2O)Cc2cc(O)ccc2O)ccc1O [Inhibitor 9]	65.2 ± 35.5 % of control
Cn1cc(C2=C(c3cn(CCCSC(=N)N)c4ccccc34)C(=O)NC2=O)c2ccccc21 [Inhibitor 33, Ro31-8220, reference compound]	26.0 ± 38.5 % of control
Cc1ccc(-c2nn(C(C)(C)C)c3ncnc(N)c23)cc1 [Inhibitor 24]	103.6 ± 60.1 % of control
COc1cc2ncnc(Nc3cccc(Cl)c3)c2cc1OC [Inhibitor 18]	110.0 ± 44.0 % of control
O=c1c(O)c(-c2ccc(O)c(O)c2)oc2cc(O)cc(O)c12 [Inhibitor 62, Quercetin dihydrate]	70.1 ± 40.5 % of control
Brc1ccc([C@H]2CN3CCSC3=N2)cc1 [Inhibitor 75]	83.2 ± 50.5 % of control
COc1c(C=O)c(O)cc2c1C(=O)c1ccccc1C2=O [Inhibitor 22, Damnacanthal, reference compound]	35.7 ± 10.3 % of control
NCCNS(=O)(=O)c1cccc2cnccc12 [Inhibitor 5]	58.3 ± 22.9 % of control
Cl.c1ccc([C@H]2CN3CCSC3=N2)cc1 [Inhibitor 78]	133.2 ± 17.6 % of control
N#C/C(=C/c1cc(Cl)cc(Cl)c1)c1cccnc1 [Inhibitor 10]	45.2 ± 46.1 % of control

Same assay, conditions: screen at 16 μM

Compound	effect on LRRK2-mediated phosphorylation of MBP
CN(C)CCCn1cc(C2=C(c3c[nH]c4ccccc34)C(=O)NC2=O)c2ccccc21 [Inhibitor 31, GP109203X, reference compound]	substantially inhibited
O=C1c2ccccc2-c2n[nH]c3cccc1c23 [Inhibitor 68, SP600125, reference compound]	substantially inhibited
Nc1ncnc2c1c(I)cn2[C@@H]1O[C@H](CO)[C@@H](O)[C@H]1O [Inhibitor 49, 5-iodo-tubercidin, reference compound]	substantially inhibited
Cn1cc(C2=C(c3cn(CCCSC(=N)N)c4ccccc34)C(=O)NC2=O)c2ccccc21 [Inhibitor 33, Ro31-8220, reference compound]	substantially inhibited
COc1c(C=O)c(O)cc2c1C(=O)c1ccccc1C2=O [Inhibitor 22, Damnacanthal, reference compound]	substantially inhibited

These compounds were tested against T3, LRRK2 G2019S (assay: In vitro kinase assay: G2019S LRRK2 autophosphorylation). Settings: Table 2; mean of three experiments.
Format: biochemical
Method: as §1, §2, §3, §4

Compound	IC50 [µM]
CN(C)CCCn1cc(C2=C(c3c[nH]c4ccccc34)C(=O)NC2=O)c2ccccc21 [Inhibitor 31, GP109203X, reference compound]	17
O=C1c2ccccc2-c2n[nH]c3cccc1c23 [Inhibitor 68, SP600125, reference compound]	3.37
Nc1ncnc2c1c(I)cn2[C@@H]1O[C@H](CO)[C@@H](O)[C@H]1O [Inhibitor 49, 5-iodo-tubercidin, reference compound]	4.23
Cn1cc(C2=C(c3cn(CCCSC(=N)N)c4ccccc34)C(=O)NC2=O)c2ccccc21 [Inhibitor 33, Ro31-8220, reference compound]	4.51
COc1c(C=O)c(O)cc2c1C(=O)c1ccccc1C2=O [Inhibitor 22, Damnacanthal, reference compound]	5.25

Same assay, conditions: Table 3; mean of three experiments

Compound	IC50 [µM]
Raf inhibitor IV	3.94
